Measured values from ChEMBL document CHEMBL1138350, “Allosteric modulation of the dopamine receptor by conformationally constrained type VI beta-turn peptidomimetics of Pro-Leu-Gly-NH2” (J Med Chem, 2007).
Calls of active or inactive are those of the source. The rule behind the calls is not given here. Peptide text beside a SMILES is read from it.

Columns and labels:
Type in all cases: cell membranes
Conditions in all cases: Striatum
[1] = species on record: Bos taurus; assay: Enhancement of [3H]NPA binding to dopamine receptor in bovine striatal membrane at 10 nM
[2] = species on record: Bos taurus; assay: Enhancement of [3H]NPA binding to dopamine receptor in bovine striatal membrane at 100 nM
[3] = species on record: Bos taurus; assay: Enhancement of [3H]NPA binding to dopamine receptor in bovine striatal membrane at 1 uM

Compound: CC(C)C[C@@]1(NC(=O)[C@@H]2CCCN2)CC[C@@]2(C(N)=O)CCCN2C1=O
- Activity [1]: Active
- Activity [2]: 19.5%
- Activity [3]: Active

Compound: NC(=O)[C@]12CCCN1C(=O)[C@@]1(CCCN1C(=O)[C@@H]1CCCN1)CC2
- Activity [1]: 11.4%

Compound: NC(=O)[C@H]1CS[C@@H]2CC[C@]3(CCCN3C(=O)[C@@H]3CCCN3)C(=O)N12
- Activity [2]: 38.2%

Compound: NC(=O)[C@@H]1CCCN1C(=O)[C@@H]1CCCN1C(=O)[C@@H]1CCCN1 (H-Pro-Pro-Pro-NH2)
- Activity [2]: 34%
